Results published in patent publication US8563732B2, “Oxyimino compounds and the use thereof” (Shionogi & Co., Ltd., priority 2007, dated 2013).

Assays:
[1] = molecular target: T1, N-type calcium channel (NTCC) (Homo sapiens, UniProt Q00975); assay: FLIPR calcium mobilization assay for N-type calcium channel; type: cell-based; settings: calcium mobilization in vitro assay; differentiated IMR32 cells, 5 μM nitrendipine, 90 mM KCl
T1 construct: host or cells: IMR32 cells, differentiated with dibutyryl cAMP and bromodeoxyuridine
Experimental: Cell maintenance and differentiation. Unless noted otherwise, cell culture reagents were purchased from Mediatech of Herndon, Md. IMR32 cells (American Type Culture Collection, ATCC, Manassas, Va.) were routinely cultured in growth medium consisting of minimum essential medium containing 10% fetal bovine serum (FBS, Hyclone, Logan, Utah), 100 U/mL penicillin, 100 μg/mL streptomycin, 2 mM L-glutamine, 1 mM sodium pyruvate, and 1×MEM non-essential amino acids. 80-90% confluent flasks of cells were differentiated using the following differentiation medium: Growth medium plus 1 mM dibutyryl cyclic AMP (Sigma, St. Louis, Mo.), and 2.5 μM bromodeoxyuridine (Sigma). Cells were differentiated for 8 days by replacing differentiation medium every 2-3 days.
FLIPR Calcium Mobilization Assay for N-type Calcium Channel. One day prior to performing this assay, differentiated IMR32 cells were treated with 1× CellStripper, and seeded on poly-D-lysine-coated 96-well clear-bottom black plates (Becton Dickinson, Franklin Lakes, N.J.) at 200,000 cells/well. […] Plates were then transferred to a Fluorimetric Imaging Plate Reader (FLIPR^96, Molecular Devices, Inc., Sunnyvale, Calif.) for assay. The FLIPR measured basal Fluo-4 fluorescence for 315 seconds (i.e., 5 minutes and 15 seconds), then added 0.1 mL KCl agonist dissolved in IMR32 buffer and measured fluorescence for another 45 seconds. Final test compound concentrations on the cells after FLIPR read ranged from about 846 pM to about 17 μM, final nitrendipine concentration was 5 μM, and final KCl concentration was 90 mM. Data were collected over the entire time course and analyzed using Excel, Graph Pad Prism (version 3.02, Graph Pad, San Diego, Calif.), or an in-house non-linear regression analysis software.

[2] = molecular target: T2, L-type calcium channel (LTCC) (Rattus norvegicus, UniProt P22002); assay: FLIPR calcium mobilization assay for L-type calcium channel; type: cell-based; settings: calcium mobilization in vitro assay; HEK293 cells expressing recombinant rat LTCC subunits (α1c, α2δ, β1), 90 mM KCl
T2 construct: The 6.5 kb cDNA encoding the L-type calcium channel α1c subunit was cloned by PCR amplification from rat heart cDNA; expressed in transfected cells
T2 sequence (P22002 whole entry): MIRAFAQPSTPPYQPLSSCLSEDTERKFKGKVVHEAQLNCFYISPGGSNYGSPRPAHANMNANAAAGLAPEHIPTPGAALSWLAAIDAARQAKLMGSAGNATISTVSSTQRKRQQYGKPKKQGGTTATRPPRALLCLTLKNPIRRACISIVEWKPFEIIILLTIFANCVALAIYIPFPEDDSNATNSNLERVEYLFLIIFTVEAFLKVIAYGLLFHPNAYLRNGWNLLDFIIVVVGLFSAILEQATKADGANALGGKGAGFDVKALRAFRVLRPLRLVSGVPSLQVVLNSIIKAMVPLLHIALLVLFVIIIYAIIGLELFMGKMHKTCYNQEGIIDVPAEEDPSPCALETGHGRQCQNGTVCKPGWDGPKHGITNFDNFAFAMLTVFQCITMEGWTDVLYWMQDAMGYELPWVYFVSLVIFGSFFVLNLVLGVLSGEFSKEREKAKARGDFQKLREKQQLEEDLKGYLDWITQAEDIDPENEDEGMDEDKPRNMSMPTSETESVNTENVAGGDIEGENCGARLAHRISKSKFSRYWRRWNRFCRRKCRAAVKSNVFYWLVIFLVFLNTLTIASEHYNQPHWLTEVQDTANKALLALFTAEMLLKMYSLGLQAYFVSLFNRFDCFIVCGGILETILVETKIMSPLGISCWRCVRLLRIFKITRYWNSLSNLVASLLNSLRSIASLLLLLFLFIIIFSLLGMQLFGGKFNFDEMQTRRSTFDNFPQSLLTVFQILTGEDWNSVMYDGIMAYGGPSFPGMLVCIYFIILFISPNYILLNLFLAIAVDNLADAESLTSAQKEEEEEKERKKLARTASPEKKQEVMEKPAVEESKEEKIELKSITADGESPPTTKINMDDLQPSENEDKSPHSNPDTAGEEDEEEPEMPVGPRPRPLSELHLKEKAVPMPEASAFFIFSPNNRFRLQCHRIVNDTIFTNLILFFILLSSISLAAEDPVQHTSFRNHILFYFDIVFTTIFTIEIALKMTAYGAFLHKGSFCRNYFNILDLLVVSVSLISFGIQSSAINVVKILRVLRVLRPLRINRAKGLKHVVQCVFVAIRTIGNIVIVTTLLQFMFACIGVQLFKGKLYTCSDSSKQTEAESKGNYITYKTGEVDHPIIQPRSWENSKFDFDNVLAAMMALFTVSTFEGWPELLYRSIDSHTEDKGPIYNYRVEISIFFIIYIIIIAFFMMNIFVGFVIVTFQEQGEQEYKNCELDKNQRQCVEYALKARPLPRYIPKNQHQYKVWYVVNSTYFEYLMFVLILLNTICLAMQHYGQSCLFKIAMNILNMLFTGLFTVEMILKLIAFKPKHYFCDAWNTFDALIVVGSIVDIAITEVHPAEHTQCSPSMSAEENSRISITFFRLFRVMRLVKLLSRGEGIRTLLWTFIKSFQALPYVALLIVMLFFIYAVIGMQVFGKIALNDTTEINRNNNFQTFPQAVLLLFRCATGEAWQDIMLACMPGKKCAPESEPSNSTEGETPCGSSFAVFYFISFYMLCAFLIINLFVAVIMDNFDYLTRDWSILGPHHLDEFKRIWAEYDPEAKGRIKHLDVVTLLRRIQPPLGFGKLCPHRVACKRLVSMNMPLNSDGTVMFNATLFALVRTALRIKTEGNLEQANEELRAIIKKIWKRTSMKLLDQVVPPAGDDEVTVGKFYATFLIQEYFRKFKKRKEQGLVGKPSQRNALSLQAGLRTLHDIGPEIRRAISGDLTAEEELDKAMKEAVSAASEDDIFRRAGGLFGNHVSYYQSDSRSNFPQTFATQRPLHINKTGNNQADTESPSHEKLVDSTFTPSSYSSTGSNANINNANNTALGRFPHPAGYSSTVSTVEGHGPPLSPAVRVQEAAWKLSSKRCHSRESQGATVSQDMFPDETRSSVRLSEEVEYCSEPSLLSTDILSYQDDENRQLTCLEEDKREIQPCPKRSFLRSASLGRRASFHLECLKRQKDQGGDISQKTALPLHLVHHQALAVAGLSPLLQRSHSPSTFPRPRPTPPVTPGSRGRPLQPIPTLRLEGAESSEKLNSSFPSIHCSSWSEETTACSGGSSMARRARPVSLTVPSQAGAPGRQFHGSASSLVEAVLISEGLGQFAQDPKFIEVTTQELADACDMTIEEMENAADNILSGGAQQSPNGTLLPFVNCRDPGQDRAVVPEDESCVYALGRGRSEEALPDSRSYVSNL
Experimental: Recombinant human embryonal kidney cells (HEK293, ATCC) stably transfected with either N-type calcium channel (NTCC) subunits (α1b, α2δ, and (β3) or L-type calcium channel (LTCC) subunits (α1c, α2δ, and β1) were routinely cultured in growth medium consisting of Dulbecco's Modified Eagles Medium containing 10% FBS, 100 U/mL penicillin, 100 μg/mL streptomycin, 4 mM L-glutamine, 500 μg/mL geneticin (G418), 20 μg/mL Blasticidin S (InVivogen, San Diego, Calif.) and 500 μg/mL zeocin (InVivogen).
FLIPR Calcium Mobilization Assay for L-type Calcium Channel. One day prior to performing this assay, HEK293 cells stably expressing recombinant rat L-type calcium channel (LTCC) subunits (α1c, α2δ, and β1) were trypsinized, then seeded on poly-D-lysine-coated 96-well clear-bottom black plates (Becton Dickinson, Franklin Lakes, N.J.) at 75,000 cells/well. On the day of the assay, the plates were washed with LTCC wash buffer (127 mM NaCl, 2 mM MgCl2, 700 μM NaH2PO4, 5 mM CaCl2, 5 mM NaHCO3, 8 mM HEPES, 10 mM glucose, pH 7.4), then loaded with 0.1 mL of LTCC wash buffer containing Fluo-4 (3 μM final concentration, Molecular Probes, Eugene, Oreg.). After 1 hour, the cells were washed with 0.1 mL LTCC wash buffer and resuspended in 0.05 mL LTCC assay buffer (same composition as LTCC wash buffer). Plates were then transferred to a FLIPR^96 for assay. The FLIPR measured basal Fluo-4 fluorescence for 15 seconds, then added 0.05 mL of each compound tested diluted in LTCC assay buffer at final concentrations ranging from about 846 pM to about 17 μM. Fluo-4 fluorescence was then measured for 5 minutes. 0.1 mL KCl agonist dissolved in LTCC assay buffer was then added to the cells to produce a final concentration of 90 mM KCl, and fluorescence was measured for another 45 seconds. Data were collected over the entire time course and analyzed using Excel, Graph Pad Prism, or an in-house regression analysis software.

Structure (SMILES) | IC50 [1] | IC50 [2]
N#Cc1cccc(C(=NOC2CCN(S(=O)(=O)c3ccc(OC(F)(F)F)cc3)CC2)C2CC2)c1 (racemic) [Example 2, 3-(Cyclopropyl(1-(4-(trifluoromethoxy)phenylsulfonyl)piperidin-4-yloxyimino)methyl)benzonitrile] | 0.2 µM | > 20 µM
O=S(=O)(c1ccc(OC(F)(F)F)cc1)N1CCC(ON=C(c2ccc(F)cc2)c2ccc(F)cc2)CC1 [Example 3, Bis(4-fluorophenyl)methanone O-1-(4-(trifluoromethoxy)phenylsulfonyl)piperidin-4-yl oxime] | 0.1 µM | > 20 µM
C/C(=N\OC1CCN(S(=O)(=O)c2ccc(OC(F)(F)F)cc2)CC1)c1cccc(C#N)c1 [Example 4, (E)-3-(1-(1-(4-(Trifluoromethoxy)phenylsulfonyl)piperidin-4-yloxyimino)ethyl)benzonitrile] | 0.18 µM | > 20 µM
